The NIST ThermoML archive (doi:10.1021/je060475r)

Assay: xn = mol fraction of the nth substance listed
Conditions: 101 kPa, Liquid

O=CN1CCOCC1 [N-formylmorpholine] + Cc1ccccc1
Conditions	mass density [kg/m3]	viscosity [mPa·s]
298.15 K, x2 = 0	1146.06	7.955
298.15 K, x2 = 0.0997	1118.85	6.045
298.15 K, x2 = 0.1857	1095.98	4.343
298.15 K, x2 = 0.2987	1064.62	3.106
298.15 K, x2 = 0.3979	1036.62	2.334
298.15 K, x2 = 0.4996	1007.87	1.769
298.15 K, x2 = 0.5993	979.41	1.376
298.15 K, x2 = 0.701	949.94	1.064
298.15 K, x2 = 0.8004	920.72	0.846
298.15 K, x2 = 0.9	891.62	0.681
303.15 K, x2 = 0	1141.7	6.877
303.15 K, x2 = 0.0997	1114.45	5.223
303.15 K, x2 = 0.1857	1091.57	3.824
303.15 K, x2 = 0.2987	1060.17	2.771
303.15 K, x2 = 0.3979	1032.11	2.116
303.15 K, x2 = 0.4996	1003.25	1.614
303.15 K, x2 = 0.5993	974.76	1.261
303.15 K, x2 = 0.701	945.23	0.994
303.15 K, x2 = 0.8004	916.11	0.79
303.15 K, x2 = 0.9	887	0.636
313.15 K, x2 = 0	1132.96	5.214
313.15 K, x2 = 0.0997	1105.62	4.037
313.15 K, x2 = 0.1857	1082.68	3.035
313.15 K, x2 = 0.2987	1051.22	2.248
313.15 K, x2 = 0.3979	1022.87	1.754
313.15 K, x2 = 0.4996	993.89	1.323
313.15 K, x2 = 0.5993	965.36	1.076
313.15 K, x2 = 0.701	935.9	0.854
313.15 K, x2 = 0.8004	906.8	0.69
313.15 K, x2 = 0.9	877.53	0.569
323.15 K, x2 = 0	1124.33	4.08
323.15 K, x2 = 0.0997	1096.88	3.219
323.15 K, x2 = 0.1857	1073.89	2.475
323.15 K, x2 = 0.2987	1042.33	1.864
323.15 K, x2 = 0.3979	1013.75	1.471
323.15 K, x2 = 0.4996	984.5	1.13
323.15 K, x2 = 0.5993	955.91	0.929
323.15 K, x2 = 0.701	926.58	0.747
323.15 K, x2 = 0.8004	897.51	0.613
323.15 K, x2 = 0.9	868.21	0.508
333.15 K, x2 = 0	1115.63	3.284
333.15 K, x2 = 0.0997	1088.08	2.622
333.15 K, x2 = 0.1857	1065	2.057
333.15 K, x2 = 0.2987	1033.38	1.576
333.15 K, x2 = 0.3979	1004.52	1.259
333.15 K, x2 = 0.4996	975.06	0.979
333.15 K, x2 = 0.5993	946.52	0.813
333.15 K, x2 = 0.701	917.23	0.66
333.15 K, x2 = 0.8004	888.11	0.544
333.15 K, x2 = 0.9	858.77	0.453
343.15 K, x2 = 0	1107.96	2.707
343.15 K, x2 = 0.0997	1080.32	2.189
343.15 K, x2 = 0.1857	1057.15	1.748
343.15 K, x2 = 0.2987	1025.32	1.353
343.15 K, x2 = 0.3979	996.41	1.096
343.15 K, x2 = 0.4996	966.84	0.888
343.15 K, x2 = 0.5993	938.07	0.72
343.15 K, x2 = 0.701	908.7	0.59
343.15 K, x2 = 0.8004	879.44	0.49
343.15 K, x2 = 0.9	850.05	0.412
353.15 K, x2 = 0	1098.76	2.274
353.15 K, x2 = 0.0997	1070.98	1.804
353.15 K, x2 = 0.1857	1047.73	1.505
353.15 K, x2 = 0.2987	1015.94	1.179
353.15 K, x2 = 0.3979	986.63	0.96
353.15 K, x2 = 0.4996	957.13	0.791
353.15 K, x2 = 0.5993	928.16	0.644
353.15 K, x2 = 0.701	898.81	0.531
353.15 K, x2 = 0.8004	869.48	0.444
353.15 K, x2 = 0.9	839.94	0.377
